Row | Compound | melting point [°C]
1 | Cn1cc(CCO)c2c3c(c(-c4ccccc4Cl)cc21)C(=O)NC3=O | 225 to 229
2 | CCOC(=O)C(C)(C)NC(=O)c1ccc(S(=O)(=O)N2C(=O)C(NC)(c3ccccc3Cl)c3cc(Cl)ccc32)c(OC)c1 (stereo not given) | 141
3 | CCc1nc2cc(NC(C)=O)c(Cl)cc2n1-c1ccc(CCNC(=O)NS(=O)(=O)c2ccc(C)cc2)cc1 | 125 to 133
4 | CCCCNc1ccc(-c2c(N)nc(N)nc2CC)cc1[N+](=O)[O-] | 252 to 254
5 | CC(C)(C)COS(=O)(=O)c1ccc(Oc2c(Cl)cccc2[N+](=O)[O-])cc1 | 111 to 112
6 | CC(C)CN(CC(C)C)C(=O)c1ccc(F)c([N+](=O)[O-])c1 | 47
7 | COc1ccc(-c2nc3cccnc3n2CC(=O)O)cc1 | 260 to 263
8 | CC1Cc2cc(C(=O)O)ccc2C1=O (stereo not given) | 189 to 194
9 | COC(=O)CCCNC(=O)/C=C/C=C/c1ccccc1 | 153 to 155
10 | CCCCc1cc(=O)c(C(=O)OCC)cn1Cc1ccc(-c2ccccc2-c2nnn[nH]2)cc1 | 119 to 120
11 | COc1ccc(S(=O)(=O)C(C)(Cc2ccccc2Br)C(=O)O)cc1 (stereo not given) | 93 to 96
12 | Cc1c(Cc2cccc(C(F)(F)F)c2F)c2ccc(Cl)c(Cl)c2n1CCCNS(C)(=O)=O | 139
13 | CSc1ccc(-c2coc3ccc(C(=O)NN)nc23)cc1 | 240 to 241
14 | CC(=O)OC1CCC2C3CCC4=CC(=O)C=CC4(C)C3CCC12C (stereo not given) | 165
15 | COc1cc(OS(C)(=O)=O)ccc1C1=NC2=NC=NC(=O)C2=N1 | 288 to 291
16 | CCN1CCC2(c3cccc(O)c3)Cc3[nH]c(C(=O)N4CCCC4)c(C)c3CC2C1 (stereo not given) | 224 to 226
17 | CCCC12CCC(=O)C=C1c1c(cc(OC)c(Cl)c1Cl)C2=O (stereo not given) | 167 to 169
18 | O=C(Nc1ccc2nc(CN3CCOCC3)ccc2c1)c1ccc(-c2ccc(Cl)cc2)cc1 | 236 to 238
19 | Nc1ccc(Cc2ccc(C3(c4ccc(Cc5ccc(N)cc5)cc4)CCCCC3)cc2)cc1 | 154 to 156
20 | O=C1CCC(C2CCCCC2)C(=O)C1 (stereo not given) | 137 to 140
21 | COC(=O)c1ccc2c(nc(C)n2Cc2ccccc2)c1C1=NC(C)(C(C)C)C(=O)N1 (stereo not given) | 194 to 196
22 | COc1ccc2[nH]c(C(=O)N3CCC[C@H](C)C3)cc2c1 | 189 to 192
23 | O=C(O)CS(=O)(=O)CCCCCn1nc(-c2ccccc2)c(-c2ccccc2)c1-c1ccccc1 | 200
24 | N#Cc1cc(-c2c[nH]nc2-c2ccc(F)cc2)ccn1 | 209
25 | CC(C)(C)C1NCc2ccccc2C1c1ccccc1 (stereo not given) | 79 to 81

Row | Compound | melting point [°C]
26 | COc1ccc2ccn3c(C(F)(F)F)nnc3c2c1 | 152 to 154
27 | CCCCCC(=O)c1c(CN(CC)CC)nc2cc(OC)c(OC)cc2c1-c1ccc(OC)c(OC)c1 | 104 to 106
28 | C[C@H](C#Cc1ccc(COCc2ccc(F)cc2)s1)N(O)C(N)=O | 90 to 91
29 | NC(=O)CNC(=O)c1cccc(-c2cccc3cc(Cc4cccc(C(F)(F)F)c4)sc23)c1F | 135 to 136
30 | O=C(NCCN1CCC(O)(c2ccc(Cl)cc2)CC1)c1ccccc1Br | 121
31 | NCCCCCC(N)=O | 49 to 50
32 | Cc1ccc(C(=O)NC(=O)Nc2cc3c(cc2F)/C(=C/c2[nH]c(C)c(CCC(=O)O)c2C)C(=O)N3)cc1 | 265 to 270
33 | CCNC(=O)c1ccc(N2CCN(Cc3cnc4c(c3)NC(=O)[C@@H]3CSCCN43)CC2)cc1 | 289
34 | COc1ccccc1-c1ccc2c(c1)CCCc1c-2nc2ccc(F)cc2c1C(=O)O | > 300
35 | CC(SC(=O)c1ccccc1)C(=O)N1c2ccccc2CCC1C(=O)O (stereo not given) | 157 to 159
36 | COc1cccc(-c2cncc(OC3SCC(O)C(O)C3O)c2)c1 (stereo not given) | 200
37 | Nc1ccc(N=Nc2ccc([N+](=O)[O-])c(C(F)(F)F)c2)cc1 | 136
38 | CCCCCc1ccc(NS(=O)(=O)c2ccc(N3CCNC3=O)cc2)cc1 | 207 to 209
39 | CCCCc1nc(CO)c(Sc2ccccc2)n1Cc1ccc(-c2ccccc2C(=O)O)cc1 | 220
40 | CCC(C(=O)N(C)C)n1ccc(-c2ccccc2)n1 (stereo not given) | 101 to 103
41 | CCOCCn1cc2c(C3C(=O)Nc4ccc(Cl)cc43)nc(NCc3ccncc3)nc2n1 (stereo not given) | 298 to 299
42 | CC(C)(C)OC(=O)Nc1ccn2nc(N3CCCC3)nc2c1 | 216 to 219
43 | CCCC(c1ccc(C(=O)Nc2ccccc2)cc1OCc1ccc(Br)cc1)n1ccnc1 (stereo not given) | 168
44 | Cc1ccc2c(c1)C(=O)CC2c1ccc(F)cc1 (stereo not given) | 68 to 70
45 | NC(=O)CNc1ncccc1NC(=O)c1ccccn1 | 188 to 190
46 | CCCCCC(=O)OCCCOc1ccc(Nc2ccccc2)cc1 | 50 to 51
47 | CC(C)(Oc1ccc(OCc2nc(-c3ccc(C(C)(C)C)cc3)no2)cc1)C(=O)O | 138 to 140
48 | Fc1c(F)c(Br)c2nsnc2c1Br | 148 to 149
49 | CC(C)S(=O)(=O)NCC(C)(F)c1ccc(-c2cccc3c2CC(=O)N3)cc1 (stereo not given) | 86 to 87
50 | CN(C)Nc1cc(Cl)c(Cl)cc1[N+](=O)[O-] | 138 to 143

Row | Compound | melting point [°C]
51 | O=Cc1cc(Cl)c2c(c1)CCCO2 | 51
52 | O=C1NC2CCC1NC2=O | 275 to 277
53 | CCCc1sc2nc(CCl)c(C(=O)OCC)c(-c3ccc(Cl)cc3)c2c1C | 95 to 96
54 | OCC(CO)(Cc1ccccc1)Cc1ccccc1 | 105
55 | CO[C@@H]1C=C2C=C3C(=C(C)C(=O)N3C)C[C@]2(C)[C@@H](C)[C@H]1OC(=O)c1cccs1 | 148 to 153
56 | Nc1nc2ccccc2c2c1ncn2CCCCNC(=O)c1ccc(Cn2c(N3CCCC3)nc3ccccc32)cc1 | 150 to 153
57 | CC1(C)CC(C)(C)c2cc(Cl)c(O)cc21 | 52
58 | COC1=NS(=O)(=O)N(C)C(OCCCCc2ccccc2)=N1 | 74 to 78
59 | CC(=O)Nc1ccc(-c2cc(-c3nc4ccccc4c(=O)n3-c3ccccc3)sc2N2CCOCC2)cc1 | > 275
60 | O=C(O)COc1ccc2c(c1)Nc1ccccc1S2 | 180 to 181
61 | CSc1cccc(SC)c1S(=O)(=O)NC(C)(C)C | 182 to 185
62 | O=C(NC1CCN(CCCOc2ccccc2-c2nnn[nH]2)CC1)c1ccccc1 | 275 to 277
63 | CCOC(=O)c1cccn2cc(C(Cl)Cl)nc12 | 108 to 110
64 | COC(=O)C[C@@H](SCc1ccccc1)C(=O)O | 91 to 92
65 | CN(C)C(=O)c1cc2c(c(C(=O)O)c1)OC(c1ccccc1)(c1ccccc1)O2 | 207 to 208
66 | Nc1ncc(Sc2ncccn2)s1 | 175 to 177
67 | CN1C(O)=C(C(=O)Nc2ccc(Cl)cc2)c2ccsc2S1(=O)=O | 202 to 204
68 | CCCCSc1c[nH]nc1C1CN2CCC1CC2 (stereo not given) | 162 to 164
69 | CN1CCC(=C2c3ccccc3C=Cc3ccc(C#N)cc32)CC1 | 141 to 146
70 | COc1cc2c(cc1OC)CN(CCc1ccc(NC(=O)c3cccc4c(=O)c5cccc(C)c5[nH]c34)cc1)CC2 | 175
71 | CCOC(=O)C1=C(COCCNC(=O)N2CCN(C)CC2)NC(C)=C(C(=O)OC)C1c1ccccc1Cl (stereo not given) | 78 to 80
72 | CCC(=O)Nc1nc2cccc(C)c2c(=O)o1 | 108 to 109
73 | COc1ccccc1Cc1n[nH]c2c1c(=O)n(-c1ccccc1)c1ncccc21 | 276 to 277
74 | CCOC(=O)C1=C(C(=O)OCC)C(c2cccc3ccccc23)C(C(=O)OCC)=C(C)N1 (stereo not given) | 112
75 | c1cn(-c2ccc3nc(-c4ccc5c(c4)OCCO5)ncc3c2)cn1 | 132

Row | Compound | melting point [°C]
76 | CN1CCN(C(=O)OC2C3=C(SCCS3)C(=O)N2c2ccccc2)CC1 (stereo not given) | 166
77 | CCOC(=O)CC(=O)c1cc(F)c(F)c(Br)c1F | 85 to 88
78 | CC(C)C(=O)Nc1cc(C(C)(C)C)on1 | 123 to 124
79 | Cc1ccc(S(=O)(=O)NCCc2cccc(OCC(=O)NCc3ccccc3)c2)cc1 | 118 to 120
80 | N#CC(=NNc1ccc(C2=NNC(=O)CC2)cc1)C(N)=C(C#N)C#N | > 300
81 | COc1cc(C(=O)c2ccc(C(F)(F)F)cc2)cc(C#N)c1OC | 130
82 | CSc1ccc2[nH]c(=O)n(CCN3CCC(Nc4nc5ccccc5n4Cc4ccc(F)cc4)CC3)c(=O)c2c1 | 238
83 | Cc1ccc(C(=O)O)c(-c2ccc(Cl)c(C(=O)NCC34CC5CC(CC(C5)C3)C4)c2)n1 | 209 to 211
84 | O=C1N(O)CC12CCOc1cc(Cl)c(Cl)cc12 (stereo not given) | 157 to 158
85 | O=c1[nH]cc(-c2cccnc2)nc1Cc1ccccc1 | 188 to 190
86 | Clc1ccc2c(c1)C(Br)Cn1cccc1S2 (stereo not given) | 106 to 107
87 | CC(NC(Nc1cc(F)cc(C(F)(F)F)c1)=C(C#N)S(C)(=O)=O)C(C)(C)C (stereo not given) | 183 to 185
88 | CN(C)Cc1ccc2c(c1)c(C1CCN(CCN3CCNC3=O)CC1)cn2-c1ccc(F)cc1 | 166 to 174
89 | CCOC(=O)C1=C(C)NC(COCCN2C(=O)c3ccccc3C2=O)=C(C(=O)OC)C1c1cccc(Cl)c1Cl (stereo not given) | 165
90 | CC(C)(C)OC(=O)N1C2C=CC(C2)N1CC(O)C(Cc1ccccc1)NC(=O)OCc1ccccc1 (mixture of isomers) | 111 to 113
91 | O=C(NCc1ccc(Cl)cc1)c1cn2c3c(cc(CCCO)cc3c1=O)OCC2(CO)CO | 173 to 174
92 | CC1OC(=O)c2c(S)cccc21 (stereo not given) | 40
93 | CCN(CC)C(=O)n1ccc(S(=O)c2ccccc2Cl)n1 (stereo not given) | 54 to 56
94 | O=C1Cc2ccccc2Sc2c1ccc(Cl)c2Cl | 133 to 135
95 | O=c1[nH]c2cc(Cl)ccc2n1C1CCN(CCCn2c(=S)[nH]c3ccccc32)CC1 | 267
96 | CC(c1cc2cc(F)ccc2s1)N(O)C(N)=O (stereo not given) | 149 to 153
97 | CC1COc2c(F)c(F)cc(C(=O)O)c2N1 (stereo not given) | 200 to 202
98 | O=C(Nc1cccc(OCc2cccnc2)c1)N1CCCC1 | 138 to 140
99 | COc1cc(CCC(=O)CC(=O)c2ccc3ccccc3c2)ccc1O | 101 to 102
100 | CC1(CCl)CC(SCc2c(C(F)(F)F)n[nH]c2Cl)=NO1 (stereo not given) | 105 to 107
